The target of test [1] is VEGFR2 kinase (KDR enzyme) (Homo sapiens, UniProt P35968). In words: In vitro inhibitory effect on VEGFR2 kinase (ADP-Glo enzymatic experiment). It is filed as biochemical. The note with it: read-out: IC50 (nM) for inhibition of VEFGR2 enzyme. The protocol:
The VEGFR2 kinase assay kit is intended for measuring VEGFR2 kinase activity using Kinase-Glo®MAX as a detection reagent, and compound screening and analysis were conducted using the IC50 value of the compound as an indicator.
The ADP-GLO™ Kinase Assay is an analytical reaction in which a luminescent kinase is used to determine the adenosine diphosphate formed by the kinase; ADP is converted to ATP, i.e., an optical signal is generated by Ultra-Glo™ luciferase. The optical signal is positively correlated with ADP quantity and kinase activity. This assay is ideal for determining the activity of the compound, making it ideal for primary screening and kinase selectivity analysis. The ADP-Glo™ Kinase Assay can be used to monitor the activity of virtually any ADP-producing enzyme such as a kinase orATPase: • 1) The enzyme, substrate, ATP and inhibitor were diluted in a kinase buffer; • 2) 384-well plate: 1 μL of inhibitor or (5% dimethyl sulfoxide solution), 2 μL of KDR enzyme, 2 μL of matrix/ATP mixture; • 3) the mixture was incubated at room temperature for 60 minutes; • 4) 5 μL of ADP-GLO™ reagent was added; • 5) the mixture was incubated for 40 minutes at room temperature; • 6) 10 μL of kinase detection reagent was added; • 7) the mixture was incubated at room temperature for 30 minutes; • 8) the luminescence was recorded (integration time 0.5-1 sec). The data was shown in relative light units (rlu), which was directly related to the amount of […]. There was correlation between the percent of the conversion from ATP to ADP for each kinase amount and the corresponding signal-to-background ratio. • 9) Data analysis: (a) KDR enzyme was titrated with 50 μM of ATP, and the luminescent signal produced by KDR enzyme was shown; (b) staurosporine dose response was generated with 1.5 ng of KDR to determine the IC50 value of the inhibitor.
(ADP-Glo turns the ADP formed in a reaction into a luminescent signal.)

In a further test the target is T1, Syk kinase (Homo sapiens, UniProt P43405).
T1 construct: purchased Invitrogen PV3857
In words: In vitro inhibitory effect on Syk kinase (HTRF enzymatic experiment). The class given is biochemical. The following applies: ATP 2 μM, read-out: IC50 (nM) for inhibition of Syk enzyme. An excerpt: The interaction between the substrate and the enzyme was detected by HTRF, using the IC50 value of the compound as an indicator to evaluate the inhibitory effect of the compound on Syk kinase.
• Syk kinase (Invitrogen, PV3857) • DTT (Sigma #43815) • ATP (Sigma #A7699) • MgCl2 (Sigma #63020) • MnCl2 (Sigma #M1787) • EDTA (Invitrogen #15575-020) • HEPES Buffer (Invitrogen #15630-080) • HTRF® KinEASE™ TK (Cisbio #62TKOPEC, 20000 tests) • Low volume, 384-well, white polystyrene plate (Greiner #784075) • 384 Well Microplates (Greiner #781946) • Centrifuge (Eppendorf #5810R) • Pipette (Eppendorf) • Pipette (Greiner) • Pipette gun (Eppendorf) • Mutidorp Pipette • POD 810 Plate Assembler Automatic Microplate Pretreatment System • Envision Reader • Experimental Steps and Methods: • a) Compound dilution and plate-making: • 1) The compound powder was weighed, dissolved in a certain amount of DMSO at an initial concentration of 10 mM. • 2) The compound was diluted to a concentration of 0.74 mM, and plated with POD18, 135 nL per well, the starting compound concentration was 10 μM, and there were 11 concentration points, with 3-fold descending serial dilutions. • b) Enzyme-substrate reaction stage: • 1) Preparation and dilution of the experimental buffer: the 5×HTRF Buffer in the kit was diluted to 1×, and specified amounts of DTT and MgCl2 solutions were added for use. • 2) SYK enzyme reaction solution was prepared with 1×HTRF Buffer so that the final reaction concentration of SYK kinase was 0.0156 ng/μL. • 3) TK-Substrate-biotin/ATP mixture was prepared so that the final substrate concentration was controlled at 0.2 μM. ATP concentration was controlled at 2 μM. • 4) The solution and the mixture were added with a Mutidorp pipette, SYK enzyme solution and TK-Substrate-biotin/ATP mixture were each added 5 μL per well, and incubated with 23 solution for 1 hour. • c) Detection stage: • 1) 13.33 mL of ethylenediaminetetraacetic acid solution was added to the detection buffer of the kit, and specified amounts of Eu-labeled antibody and XL-665 were added to prepare the detection solution. • 2) The solution was added with a Mutidorp pipette, 10 μL of detection solution per well, and incubated with 23 solution for 1 hour. The reaction of the enzyme and substrate mixture was stopped. • 3) After centrifugation, the reading was obtained on Envision. • d) Data analyzation: the data was analyzed using XL-Fit and the IC50 value of the compound was calculated.
For orientation: TR-FRET usually uses a lanthanide donor and a delayed reading to cut background.

The values below come from patent US12637469B2, “1H-pyrazole derivative and application thereof as dual target inhibitor of Syk and VEGFR2” (Ocumension Therapeutics (Suzhou) Co., Ltd., priority 2020, dated 2026).

VEGFR2 kinase (KDR enzyme), sequence (P35968 20-1356, species assumed): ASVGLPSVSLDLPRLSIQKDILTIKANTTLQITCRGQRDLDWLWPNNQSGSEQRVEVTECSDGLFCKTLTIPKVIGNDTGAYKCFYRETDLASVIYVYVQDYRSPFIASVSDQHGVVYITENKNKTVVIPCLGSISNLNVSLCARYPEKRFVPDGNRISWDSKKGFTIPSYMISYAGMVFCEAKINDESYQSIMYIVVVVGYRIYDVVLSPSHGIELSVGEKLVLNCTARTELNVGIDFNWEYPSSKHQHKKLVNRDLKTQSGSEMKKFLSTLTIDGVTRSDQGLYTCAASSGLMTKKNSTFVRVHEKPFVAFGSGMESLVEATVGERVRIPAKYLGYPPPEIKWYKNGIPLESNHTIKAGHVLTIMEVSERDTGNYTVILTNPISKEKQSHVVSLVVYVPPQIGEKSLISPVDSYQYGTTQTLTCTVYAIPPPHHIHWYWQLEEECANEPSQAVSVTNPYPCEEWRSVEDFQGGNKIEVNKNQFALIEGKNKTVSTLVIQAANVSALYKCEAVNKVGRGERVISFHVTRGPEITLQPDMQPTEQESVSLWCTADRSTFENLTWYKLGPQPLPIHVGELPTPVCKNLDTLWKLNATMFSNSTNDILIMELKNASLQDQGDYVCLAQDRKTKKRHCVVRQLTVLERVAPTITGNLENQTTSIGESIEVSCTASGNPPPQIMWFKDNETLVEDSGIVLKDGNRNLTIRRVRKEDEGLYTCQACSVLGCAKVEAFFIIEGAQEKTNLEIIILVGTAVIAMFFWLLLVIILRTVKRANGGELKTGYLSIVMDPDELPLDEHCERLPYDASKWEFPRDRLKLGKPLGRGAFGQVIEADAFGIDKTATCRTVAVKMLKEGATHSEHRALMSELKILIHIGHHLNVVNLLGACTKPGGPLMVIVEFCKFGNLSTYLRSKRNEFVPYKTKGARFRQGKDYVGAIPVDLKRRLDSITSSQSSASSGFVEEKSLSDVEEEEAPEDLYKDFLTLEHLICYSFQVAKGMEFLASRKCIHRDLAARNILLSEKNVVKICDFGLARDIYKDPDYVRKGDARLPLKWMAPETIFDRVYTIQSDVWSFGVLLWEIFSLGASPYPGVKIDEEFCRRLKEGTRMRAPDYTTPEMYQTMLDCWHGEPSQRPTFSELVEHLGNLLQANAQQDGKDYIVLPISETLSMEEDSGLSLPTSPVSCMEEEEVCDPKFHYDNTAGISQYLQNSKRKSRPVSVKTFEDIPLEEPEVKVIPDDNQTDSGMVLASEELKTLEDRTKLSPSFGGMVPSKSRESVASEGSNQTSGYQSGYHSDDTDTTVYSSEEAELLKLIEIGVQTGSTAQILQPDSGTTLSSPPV

Take `c1cn2c(n1)c(Nc1ccc(C3CCOCC3)cc1)nc1ccc(-c3cn[nH]c3)cc12` [Compound 11]: the results for the IC50 (in test [1]; on Syk kinase) were 56 nM and 34 nM, respectively.
Take `CC1(O)CCN(c2ccc(Nc3nc4ccc(-c5cn[nH]c5)cc4n4ccnc34)cc2)CC1` [Compound 8]: the IC50 in test [1] turned out to be 31 nM; on Syk kinase, 30 nM.
Take `c1cn2c(n1)c(Nc1ccc(N3CCN(C4COC4)CC3)cc1)nc1ccc(-c3cn[nH]c3)cc12` [Compound 5]: the figures for the half-maximal inhibitory concentration (IC50) (in test [1]; on Syk kinase) were 19 nM and 17 nM, respectively.
The matching figures for `N=S1(=O)CCN(c2ccc(Nc3nc4ccc(-c5cn[nH]c5)cc4n4ccnc34)cc2)CC1` [Compound 9]: 22 nM and 23 nM.
The matching figures for `CN1CCN(c2ccc(Nc3nc4ccc(-c5cn[nH]c5)cc4n4ccnc34)cc2)CC1` [Compound 6]: 44 nM and 50 nM.
The matching figures for `c1cn2c(n1)c(Nc1ccc(N3CCOCC3)cc1)nc1ccc(-c3cc[nH]n3)cc12` [Compound 2]: 31 nM and 125 nM.
For the molecule `c1cn2c(n1)c(Nc1ccc(N3CCC4(CC3)COC4)cc1)nc1ccc(-c3cn[nH]c3)cc12` [Compound 12], the figures for the IC50 (in test [1]; at Syk kinase) were 88 nM and 315 nM, respectively.
Take `CC(=O)N=S1(=O)CCN(c2ccc(Nc3nc4ccc(-c5cn[nH]c5)cc4n4ccnc34)cc2)CC1` [Compound 10]: the IC50 in test [1] was 41 nM; on Syk kinase it was 11 nM.
On to `CN1CCCN(c2ccc(Nc3nc4ccc(-c5cn[nH]c5)cc4n4ccnc34)cc2)CC1` [Compound 7], for which the IC50 in test [1] turned out to be 42 nM; on Syk kinase, 34 nM.

Usually IC50 stands for the midpoint of a concentration-inhibition curve.
